From US20070043013A1, “1,3 Disubstituted azetidine derivatives for use as ccr-3 receptor antagonists in the treatment of inflammatory and allergic diseases” (priority 2003, published 2007) come the findings set out here.

In assay [1] the target is alpha-1 adrenergic receptor. Description: alpha-1 adrenergic receptor radioligand binding assay ([125I]-HEAT, rat cerebral cortex membranes). As to conditions: radioligand used at 40 pM. As for the experimental part: The inhibitory properties of agents of the invention on binding of the alpha-1 adrenergic receptor can be determined in the following assay:
Cerebral cortices from male Sprague-Dawley rats (175-200 g) are dissected and homogenised in 10 volumes of ice cold 0.32 M sucrose (containing 1 mM MgCl2 dihydrate and 1 mM K2HPO4) with a glass/Teflon homogeniser. The membranes are centrifuged at 1000×g for 15 miN, the pellet discarded and the centrifugation repeated. The supernatants are pooled and centrifuged at 18,000×g for 15 minutes. The pellet is osmotically shocked in 10 volumes of water and kept on ice for 30 minutes. The suspension is centrifuged at 39,000×g for 20 minutes, resuspended in Krebs-Henseleit buffer pH 7.4 (1.17 mM MgS04 anhydrous, 4.69 mM KCl, 0.7 mM K2HPO4 anhydrous, 0.11 M NaCl, 11 mM D-glucose and 25 mM NaHCO3) containing 20 mM Tris, and kept for 2 days at −20° C. The membranes are then thawed at 20-23° C., washed three times with Krebs-Henseleit buffer by centrifugation at 18,000×g for 15 minutes, left overnight at 4° C. and washed again three times. […]
The resulting membranes are subjected to a radioligand binding assay. […] Following drying of the plates for 3 h. at 50° C., 40 μl of Microscint 20 is added to each well, the plates incubated at room temperature for a further 20 minutes and the retained radioactivity quantified in a Packard TopCount NXT™ scintillation counter. […]

The target in another assay is histamine H1 (Homo sapiens, UniProt P35367). Description: histamine H1 antagonism.
histamine H1, sequence (P35367 whole entry): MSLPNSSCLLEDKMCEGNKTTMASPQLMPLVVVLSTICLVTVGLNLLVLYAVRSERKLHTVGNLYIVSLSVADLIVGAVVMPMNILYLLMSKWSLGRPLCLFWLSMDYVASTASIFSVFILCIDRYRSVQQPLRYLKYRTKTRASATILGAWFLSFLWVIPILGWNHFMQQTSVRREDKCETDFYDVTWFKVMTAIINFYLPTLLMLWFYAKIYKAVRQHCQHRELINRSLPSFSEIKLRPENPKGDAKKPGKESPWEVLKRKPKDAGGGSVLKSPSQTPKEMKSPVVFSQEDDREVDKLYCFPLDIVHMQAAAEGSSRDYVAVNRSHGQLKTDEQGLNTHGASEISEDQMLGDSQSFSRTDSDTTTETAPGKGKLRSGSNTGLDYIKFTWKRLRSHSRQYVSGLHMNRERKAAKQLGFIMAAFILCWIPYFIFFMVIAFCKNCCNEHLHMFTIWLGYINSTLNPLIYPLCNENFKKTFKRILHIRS

The structures appear in SMILES notation.

For `O=C1c2ccccc2CCC1CNCCc1ccc(O)c(I)c1` (stereo not drawn) [[^125I]-HEAT], in assay [1], the dissociation constant (Kd) (commonly the concentration at which binding is half-saturated) was determined as 0.0589 ± 0.0187 nM. Regarding `CCc1nnc(NC(=O)N[C@H](CO)CCN2CC(Sc3ccc(Cl)cc3)C2)s1` [Example 19, 1-{(S)-3-[3-(4-Chloro-phenylsulfanyl)-azetidin-1-yl]-1-hydroxymethyl-propyl}-3-(5-ethyl-[1,3,4]thiadiazol-2-yl)-urea], the “histamine H1 antagonist activity” value at histamine H1 is “histamine H1 antagonists”. On the same count and under the same terms, under `CCc1nnc(NC(=O)N[C@@H]2CCCC[C@@H]2CN2CC(Oc3ccc(Cl)cc3)C2)s1` (racemic) [Example 31, (+/−)1-{(1R,2R)-2-[3-(4-Chloro-phenoxy)-azetidin-1-yl-methyl]-cyclohexyl}-3-(5-ethyl-[1,3,4]thiadiazol-2-yl)-urea] stands “histamine H1 antagonists”.
